According to patent US20250154141A1 (University of Florida Research Foundation, Incorporated, priority 2021, published 2025):
Where two headings read alike, the source gives them in different places.

Tests used:
MOLT-4 = assay: Cell viability assay (MTS) in MOLT-4 cells; assay type: cell-based; conditions: Homo sapiens, MOLT-4
Procedure: (§1) Acute lymphoblastic leukemia cells (MOLT-4 and RS4; 11) were incubated with increasing concentrations of Bcl-xL degraders for 48 h. Cell viability was measured by tetrazolium-based MTS assay.

RS4; 11 = assay: Cell viability assay (MTS) in RS4; 11 cells; assay type: cell-based; conditions: Homo sapiens, RS4-11
Procedure: as §1

[1] = Table 2, 48 hr, MTS, read-out: Anti-Cancer Activity IC50 (48 hr) MOLT-4
[2] = Table 2, 48 hr, MTS, read-out: Anti-Cancer Activity IC50 (48 hr) RS4, 11
[3] = Table 2A, 48 hr, MTS, read-out: Anti-Cancer Activity IC50 (48 hr) MOLT-4
[4] = Table 2A, 48 hr, MTS, read-out: Anti-Cancer Activity IC50 (48 hr) RS4, 11

SMILES | IC50 (MOLT-4; [1]) [nM] | IC50 (RS4; 11; [2]) [nM] | other results
Cc1ncsc1-c1ccc([C@H](C)NC(=O)[C@@H]2C[C@@H](O)CN2C(=O)[C@@H](NC(=O)CCCCCCCNC(=O)c2ccc(N3CCN(CC4(C)CCC(c5ccc(Cl)cc5)=C(CN5CCN(c6ccc(C(=O)NS(=O)(=O)c7ccc(N[C@H](CCN8CCOCC8)CSc8ccccc8)c(S(=O)(=O)C(F)(F)F)c7)cc6)CC5)C4)CC3)cn2)C(C)(C)C)cc1 (some centres unmarked) [Compound 6] | 500 to 10000 | 100 to 500 | 
Cc1ncsc1-c1ccc([C@H](C)NC(=O)[C@@H]2C[C@@H](O)CN2C(=O)[C@@H](NC(=O)CCCCCCC(=O)N2CCN(CC3(C)CCC(c4ccc(Cl)cc4)=C(CN4CCN(c5ccc(C(=O)NS(=O)(=O)c6ccc(N[C@H](CCN(C)C)CSc7ccccc7)c(S(=O)(=O)C(F)(F)F)c6)cc5)CC4)C3)CC2)C(C)(C)C)cc1 (some centres unmarked) [Compound 61] | < 20 | < 20 | 
CC(=O)N1CCN(CC[C@H](CSc2ccccc2)Nc2ccc(S(=O)(=O)NC(=O)c3ccc(N4CCN(CC5=C(c6ccc(Cl)cc6)CCC(C)(CN6CCN(C(=O)CCCCCCC(=O)N[C@H](C(=O)N7C[C@H](O)C[C@H]7C(=O)N[C@@H](C)c7ccc(-c8scnc8C)cc7)C(C)(C)C)CC6)C5)CC4)cc3)cc2[N+](=O)[O-])CC1 (stereo partly drawn) [Compound 48, (2S,4R)-1-((2S)-2-(8-(4-((6-((4-(4-(((4-(((R)-4-(4-acetylpiperazin-1-yl)-1-(phenylthio)butan-2-yl)amino)-3-nitrophenyl)sulfonyl)carbamoyl)phenyl)piperazin-1-yl)methyl)-4′-chloro-4-methyl-2,3,4,5-tetrahydro-[1,1′-biphenyl]-4-yl)methyl)piperazin-1-yl)-8-oxooctanamido)-3,3-dimethylbutanoyl)-4-hydroxy-N—((S)-1-(4-(4-methylthiazol-5-yl)phenyl)ethyl)pyrrolidine-2-carboxamide] | 20 to 100 | < 20 | 
Cc1ncsc1-c1ccc([C@H](C)NC(=O)[C@@H]2C[C@@H](O)CN2C(=O)[C@@H](NC(=O)CCCCCCCCC(=O)N2CCN(CCC3(C)CCC(c4ccc(Cl)cc4)=C(CN4CCN(c5ccc(C(=O)NS(=O)(=O)c6ccc(N[C@H](CCN7CCOCC7)CSc7ccccc7)c(S(=O)(=O)C(F)(F)F)c6)cc5)CC4)C3)CC2)C(C)(C)C)cc1 (stereo partly drawn) [Compound 30, (2S,4R)-1-((2S)-2-(10-(4-(2-(4′-chloro-4-methyl-6-((4-(4-(((4-(((R)-4-morpholino-1-(phenylthio)butan-2-yl)amino)-3-((trifluoromethyl)sulfonyl)phenyl)sulfonyl)carbamoyl)phenyl)piperazin-1-yl)methyl)-2,3,4,5-tetrahydro-[1,1′-biphenyl]-4-yl)ethyl)piperazin-1-yl)-10-oxodecanamido)-3,3-dimethylbutanoyl)-4-hydroxy-N—((S)-1-(4-(4-methylthiazol-5-yl)phenyl)ethyl)pyrrolidine-2-carboxamide] | 100 to 500 | 20 to 100 | 
Cc1ncsc1-c1ccc([C@H](C)NC(=O)[C@@H]2C[C@@H](O)CN2C(=O)[C@@H](NC(=O)CCCCCCC(=O)N2CCN(CC3(C)CCC(c4ccc(Cl)cc4)=C(CN4CCN(c5ccc(C(=O)NS(=O)(=O)c6ccc(N[C@H](CCN7CCOCC7)CSc7ccccc7)c([N+](=O)[O-])c6)cc5)CC4)C3)CC2)C(C)(C)C)cc1 (stereo partly drawn) [Compound 33, (2S,4R)-1-((2S)-2-(8-(4-((4′-chloro-4-methyl-6-((4-(4-(((4-(((R)-4-morpholino-1-(phenylthio)butan-2-yl)amino)-3-nitrophenyl)sulfonyl)carbamoyl)phenyl)piperazin-1-yl)methyl)-2,3,4,5-tetrahydro-[1,1′-biphenyl]-4-yl)methyl)piperazin-1-yl)-8-oxooctanamido)-3,3-dimethylbutanoyl)-4-hydroxy-N—((S)-1-(4-(4-methylthiazol-5-yl)phenyl)ethyl)pyrrolidine-2-carboxamide] | 20 to 100 | < 20 | 
Cc1ncsc1-c1ccc([C@H](C)NC(=O)[C@@H]2C[C@@H](O)CN2C(=O)[C@@H](NC(=O)CCCCCCC(=O)N2CCN(CC3(C)CCC(c4ccc(Cl)cc4)=C(CN4CCN(c5ccc(C(=O)NS(=O)(=O)c6ccc(N[C@H](CCN7CCC(O)CC7)CSc7ccccc7)c([N+](=O)[O-])c6)cc5)CC4)C3)CC2)C(C)(C)C)cc1 (stereo partly drawn) [Compound 46, (2S,4R)-1-((2S)-2-(8-(4-((4′-chloro-6-((4-(4-(((4-(((R)-4-(4-hydroxypiperidin-1-yl)-1-(phenylthio)butan-2-yl)amino)-3-nitrophenyl)sulfonyl)carbamoyl)phenyl)piperazin-1-yl)methyl)-4-methyl-2,3,4,5-tetrahydro-[1,1′-biphenyl]-4-yl)methyl)piperazin-1-yl)-8-oxooctanamido)-3,3-dimethylbutanoyl)-4-hydroxy-N—((S)-1-(4-(4-methylthiazol-5-yl)phenyl)ethyl)pyrrolidine-2-carboxamide] | 20 to 100 | < 20 | IC50 (MOLT-4; Table 5, 48 h, read-out: MOLT-4 48 h IC50): 55.9 nM; IC50 (RS4; 11; Table 5, 48 h, read-out: RS4 48 h IC50): 5.8 nM
Cc1ncsc1-c1ccc([C@H](C)NC(=O)[C@@H]2C[C@@H](O)CN2C(=O)[C@@H](NC(=O)COCCOCc2cn(CC3(C)CCC(c4ccc(Cl)cc4)=C(CN4CCN(c5ccc(C(=O)NS(=O)(=O)c6ccc(N[C@H](CCN7CCOCC7)CSc7ccccc7)c(S(=O)(=O)C(F)(F)F)c6)cc5)CC4)C3)nn2)C(C)(C)C)cc1 (stereo partly drawn) [Compound 21, (2S,4R)-1-((2S)-2-(2-(2-((1-((4′-chloro-4-methyl-6-((4-(4-(((4-(((R)-4-morpholino-1-(phenylthio)butan-2-yl)amino)-3-((trifluoromethyl)sulfonyl)phenyl)sulfonyl)carbamoyl)phenyl)piperazin-1-yl)methyl)-2,3,4,5-tetrahydro-[1,1′-biphenyl]-4-yl)methyl)-1H-1,2,3-triazol-4-yl)methoxy)ethoxy)acetamido)-3,3-dimethylbutanoyl)-4-hydroxy-N—((S)-1-(4-(4-methylthiazol-5-yl)phenyl)ethyl)pyrrolidine-2-carboxamide] | 100 to 500 | 20 to 100 | 
Cc1ncsc1-c1ccc([C@H](C)NC(=O)[C@@H]2C[C@@H](O)CN2C(=O)[C@@H](NC(=O)CCS(=O)(=O)N2CCN(C[C@]3(C)CCC(c4ccc(Cl)cc4)=C(CN4CCN(c5ccc(C(=O)NS(=O)(=O)c6ccc(N[C@H](CCN7CCCOCC7)CSc7ccccc7)c(S(=O)(=O)C(F)(F)F)c6)cc5)CC4)C3)CC2)C(C)(C)C)cc1 [Compound 109] |  |  | IC50 (MOLT-4; [3]): 100 to 500 nM; IC50 (RS4; 11; [4]): 20 to 100 nM
Cc1ncsc1-c1ccc([C@H](C)NC(=O)[C@@H]2C[C@@H](O)CN2C(=O)[C@@H](NC(=O)CCCNC(=O)c2ccc(N3CCN(CCN(C)CC4(C)CCC(c5ccc(Cl)cc5)=C(CN5CCN(c6ccc(C(=O)NS(=O)(=O)c7ccc(N[C@H](CCN8CCOCC8)CSc8ccccc8)c(S(=O)(=O)C(F)(F)F)c7)cc6)CC5)C4)CC3)nc2)C(C)(C)C)cc1 (some centres unmarked) [Compound 8] | 20 to 100 | 20 to 100 | 
Cc1ncsc1-c1ccc([C@H](C)NC(=O)[C@@H]2C[C@@H](O)CN2C(=O)[C@@H](NC(=O)CCCCCCC(=O)N2CCN(C[C@]3(C)CCC(c4ccc(Cl)cc4)=C(CN4CCN(c5ccc(C(=O)NS(=O)(=O)c6ccc(N[C@H](CCN7CCOC8(CCC8)C7)CSc7ccccc7)c(S(=O)(=O)C(F)(F)F)c6)cc5)CC4)C3)CC2)C(C)(C)C)cc1 [Compound 93] | 500 to 10000 | 500 to 10000 | 
Cc1ncsc1-c1ccc([C@H](C)NC(=O)[C@@H]2C[C@@H](O)CN2C(=O)[C@@H](NC(=O)COCCCNC(=O)c2ccc(N3CCN(C[C@]4(C)CCC(c5ccc(Cl)cc5)=C(CN5CCN(c6ccc(C(=O)NS(=O)(=O)c7ccc(N[C@H](CCN8CCCOCC8)CSc8ccccc8)c(S(=O)(=O)C(F)(F)F)c7)cc6)CC5)C4)CC3)nn2)C(C)(C)C)cc1 [Compound 111] |  |  | IC50 (MOLT-4; [3]): < 20 nM; IC50 (RS4; 11; [4]): < 20 nM
Cc1ncsc1-c1ccc([C@H](C)NC(=O)[C@@H]2C[C@@H](O)CN2C(=O)[C@@H](NC(=O)CCCCCNC(=O)c2cnc(N3CCN(C[C@]4(C)CCC(c5ccc(Cl)cc5)=C(CN5CCN(c6ccc(C(=O)NS(=O)(=O)c7ccc(N[C@H](CCN8CCCOCC8)CSc8ccccc8)c(S(=O)(=O)C(F)(F)F)c7)cc6)CC5)C4)CC3)nc2)C(C)(C)C)cc1 [Compound 78] | < 20 | 20 to 100 | 
Cc1ncsc1-c1ccc([C@H](C)NC(=O)[C@@H]2C[C@@H](O)CN2C(=O)[C@@H](NC(=O)CCCCCCNC(=O)c2ccc(N3CCN(C[C@]4(C)CCC(c5ccc(Cl)cc5)=C(CN5CCN(c6ccc(C(=O)NS(=O)(=O)c7ccc(N[C@H](CCN8C[C@H]9C[C@@H]8CO9)CSc8ccccc8)c(S(=O)(=O)C(F)(F)F)c7)cc6)CC5)C4)CC3)nc2)C(C)(C)C)cc1 [Compound 73] | < 20 | < 20 | IC50 (MOLT-4; Table 4, 48 h, read-out: MOLT-4 48 h IC50): 7.1 nM; IC50 (RS4; 11; Table 4, 48 h, read-out: RS4 48 h IC50): 13.9 nM
Cc1ncsc1-c1ccc([C@H](C)NC(=O)[C@@H]2C[C@@H](O)CN2C(=O)[C@@H](NC(=O)CCCCCCC(=O)N2CCN(CC3(C)CCC(c4ccc(Cl)cc4)=C(CN4CCN(c5ccc(C(=O)NS(=O)(=O)c6ccc(N[C@H](CCN7CCCCC7CO)CSc7ccccc7)c([N+](=O)[O-])c6)cc5)CC4)C3)CC2)C(C)(C)C)cc1 (stereo partly drawn) [Compound 45, (2S,4R)-1-((2S)-2-(8-(4-((4′-chloro-6-((4-(4-(((4-(((2R)-4-(2-(hydroxymethyl)piperidin-1-yl)-1-(phenylthio)butan-2-yl)amino)-3-nitrophenyl)sulfonyl)carbamoyl)phenyl)piperazin-1-yl)methyl)-4-methyl-2,3,4,5-tetrahydro-[1,1′-biphenyl]-4-yl)methyl)piperazin-1-yl)-8-oxooctanamido)-3,3-dimethylbutanoyl)-4-hydroxy-N—((S)-1-(4-(4-methylthiazol-5-yl)phenyl)ethyl)pyrrolidine-2-carboxamide] | 100 to 500 | 20 to 100 | 
